The assay addresses T1, Disintegrin and metalloproteinase domain-containing protein 10 (Homo sapiens, UniProt O14672).
T1 sequence (O14672 whole entry): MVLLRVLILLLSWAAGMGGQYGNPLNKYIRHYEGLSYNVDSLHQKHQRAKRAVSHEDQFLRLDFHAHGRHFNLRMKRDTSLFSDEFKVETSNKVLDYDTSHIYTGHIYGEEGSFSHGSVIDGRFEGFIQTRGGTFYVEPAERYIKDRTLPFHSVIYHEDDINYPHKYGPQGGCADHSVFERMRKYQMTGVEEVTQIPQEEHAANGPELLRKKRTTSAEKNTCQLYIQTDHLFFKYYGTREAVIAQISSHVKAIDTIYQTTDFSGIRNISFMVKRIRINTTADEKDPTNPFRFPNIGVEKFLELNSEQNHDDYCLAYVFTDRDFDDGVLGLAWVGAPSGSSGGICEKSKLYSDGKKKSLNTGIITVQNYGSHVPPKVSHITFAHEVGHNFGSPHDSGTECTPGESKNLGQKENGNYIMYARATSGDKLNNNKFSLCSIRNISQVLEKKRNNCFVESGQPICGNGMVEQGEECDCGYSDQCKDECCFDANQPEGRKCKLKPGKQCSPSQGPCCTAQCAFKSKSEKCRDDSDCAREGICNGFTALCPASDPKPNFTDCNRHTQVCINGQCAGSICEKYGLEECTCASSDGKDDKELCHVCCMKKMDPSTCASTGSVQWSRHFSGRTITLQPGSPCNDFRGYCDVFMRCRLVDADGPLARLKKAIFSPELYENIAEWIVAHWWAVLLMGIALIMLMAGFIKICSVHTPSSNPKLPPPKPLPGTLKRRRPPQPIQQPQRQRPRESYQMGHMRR
In words: ADAM10 inhibitors, peptide cleavage, dose response, biochemical, QFRET (AID 743254).
In turn, `O=c1[nH]c(=O)n(-c2ccc(Br)cc2)c(O)c1C=NCCN1CCCCC1` had an IC50 of 11.7 µM.
As to `O=C1/C(=C/c2cccs2)SC(=S)N1NS(=O)(=O)c1ccccc1`, the midpoint of inhibition, the IC50, lay at 69.5 µM. This IC50 lies about 5.9-fold higher than the previous one.
The value for `CCCNc1c(F)c(F)c2c(C)c3ccccc3nc2c1F` [1,2,4-trifluoro-9-methyl-N-propyl-3-acridinamine] was 69.5 µM; that for `Cn1nc(-c2ccccn2)nc2c(=O)n(C)c(=O)nc1-2` [1,6-dimethyl-3-(2-pyridinyl)pyrimido[5,4-e][1,2,4]triazine-5,7(1H,6H)-dione] was 69.5 µM; that for `N#CCSc1nc2cc(C(=O)N3CCC(C(N)=O)CC3)ccc2c2nc3ccccc3n12` [1-({6-[(cyanomethyl)thio]benzimidazo[1,2-c]quinazolin-3-yl}carbonyl)piperidine-4-carboxamide] was 18.2 µM.
Then `N#Cc1c(Cl)nc(N=NCc2ccccc2)c(Cl)c1Cl` [2,4,5-tris(chloranyl)-6-[(2E)-2-(phenylmethylidene)hydrazinyl]pyridine-3-carbonitrile], with 69.5 µM; and `Cc1ccc(OCC(=O)Nc2nnc[nH]2)c(Br)c1` [2-(2-bromanyl-4-methyl-phenoxy)-N-(1H-1,2,4-triazol-5-yl)ethanamide], with 7.45 µM; and `Cc1cccc(S(=O)(=O)C(C#N)c2nc3ccccc3nc2N2CCOCC2)c1` (configuration not stated) [2-(3-methylphenyl)sulfonyl-2-(3-morpholin-4-ylquinoxalin-2-yl)acetonitrile], with 69.5 µM.
As to `Cc1cccc(Oc2nc(-c3ccccn3)nc3ccccc23)c1` [2-Pyridin-2-yl-4-m-tolyloxy-quinazoline], the midpoint of inhibition, the IC50, lay at 69.5 µM.
The value for `CCOC(=O)Cc1csc(NC(=O)c2sc3nc4cc(C)ccc4cc3c2N)n1` [2-[2-[(3-amino-7-methyl-thieno[2,3-b]quinoline-2-carbonyl)amino]thiazol-4-yl]acetic acid ethyl ester] was 7.72 µM; that for `O=C1c2ccccc2C(=O)N1CCCc1nc(-c2ccncc2)no1` [2-[3-(3-pyridin-4-yl-1,2,4-oxadiazol-5-yl)propyl]isoindole-1,3-dione] was 37.6 µM; that for `Cc1cc(/C=C(/C#N)c2nc3ccccc3[nH]2)c(C)n1-c1ccccc1C(=O)O` [2-[3-[(Z)-2-(1H-benzimidazol-2-yl)-2-cyanoethenyl]-2,5-dimethylpyrrol-1-yl]benzoic acid] was 12.5 µM.
The compound `O=C(CC1CCCCC1)Nc1nc[nH]n1` [2-cyclohexyl-N-(1H-1,2,4-triazol-5-yl)ethanamide] returned an IC50 of 69.5 µM.
Then `Oc1cc(N(CCc2ccccc2)C(=S)Nc2cc(Cl)ccc2Cl)c(O)n1-c1c(Cl)cccc1Cl` [3-[2,5-bis(chloranyl)phenyl]-1-[1-[2,6-bis(chloranyl)phenyl]-2,5-bis(oxidanylidene)pyrrolidin-3-yl]-1-(2-phenylethyl)thiourea], with 69.5 µM.
Then `O=C(O)CCc1ccc(-c2ccccc2)n1-c1cccc(C(=O)O)c1` [3-[2-(2-carboxyethyl)-5-phenyl-1-pyrrolyl]benzoic acid], with 9.61 µM; and `Cc1cc(C=C2C(=O)NC(=O)N(c3ccc(F)cc3)C2=O)c(C)n1-c1cccc(C(=O)O)c1` [3-[3-[(E)-[1-(4-fluorophenyl)-2,4,6-tris(oxidanylidene)-1,3-diazinan-5-ylidene]methyl]-2,5-dimethyl-pyrrol-1-yl]benzoic acid], with 19.4 µM.
The value for `COc1cc(CN=O)cc(Br)c1OCc1ccc(Cl)cc1` [3-bromo-4-[(4-chlorobenzyl)oxy]-5-methoxybenzaldehyde oxime] was 69.5 µM.
In turn, `C(=CN=Nc1nc2ccccc2s1)Cc1ccccc1` [3-phenylacrylaldehyde 1,3-benzothiazol-2-ylhydrazone] had an IC50 of 69.5 µM.
`Cc1ccc(NCC(=O)NN=Cc2ccc(C(=O)O)cc2)cc1` [4-[[2-[(4-methylphenyl)amino]ethanoylhydrazinylidene]methyl]benzoic acid] showed an IC50 of 15.6 µM.
With `O=c1[nH][nH]c2cc(=O)n(-c3ccc(Cl)cc3)nc12` [5-(4-chlorophenyl)-1,2-dihydropyrazolo[4,3-c]pyridazine-3,6-dione], the IC50 was found to be 10.1 µM.
Then `CSc1nsc2nc(=O)c(/C=C3\C=Nc4ccccc43)c(N)n12` [5-amino-6-[(Z)-3-indolylidenemethyl]-3-(methylthio)-[1,2,4]thiadiazolo[4,5-a]pyrimidin-7-one], with 7.43 µM; and `CN1C(=O)C(=CNCCCCCCCCCCC(=O)O)C(=O)N(C)C1=O` [11-[[1,3-dimethyl-2,4,6-tris(oxidanylidene)-1,3-diazinan-5-ylidene]methylamino]undecanoic acid], with 13.1 µM; and `COc1ccc(N=C(C)c2sc3ccccc3c2O)cc1` [(2Z)-2-[1-(4-methoxyanilino)ethylidene]-1-benzothiophen-3-one], with 24 µM.
The value for `CC(/C=C1\N=C(SCc2ccccc2Cl)SC1=O)=C\c1ccccc1` [(4Z)-2-[(2-chlorophenyl)methylsulfanyl]-4-[(E)-2-methyl-3-phenyl-prop-2-enylidene]-1,3-thiazol-5-one] was 12 µM; that for `COc1ccc(N2C(=O)NC(=O)C(=Cc3c[nH]c4ccc(Br)cc34)C2=O)c(OC)c1` [(5E)-5-[(5-bromo-1H-indol-3-yl)methylene]-1-(2,4-dimethoxyphenyl)pyrimidine-2,4,6(1H,3H,5H)-trione] was 5.44 µM.
Then `O=C1OCCN1C(=O)C1=[N+](c2ccc(Br)cc2)N[C-](c2ccc(F)cc2)[C@H]1c1ccc([N+](=O)[O-])cc1` [MLS000517953], with 18.5 µM; and `O=C1OCCN1C(=O)C1=[N+](c2ccc(Br)cc2)N[C-](c2cccc(Cl)c2)[C@H]1c1ccc([N+](=O)[O-])cc1` [MLS000517955], with 21.4 µM; and `Fc1c(F)c(C(F)(F)F)c(F)c(F)c1N=NCc1cccs1` [MLS000533109], with 69.5 µM.
Compound `O=C1C=CC([N+](=O)[O-])=CC1CN=Nc1ccccn1` (configuration not stated) [MLS000585015] yielded an IC50 of 27.5 µM.
Turning to `Cc1nnc(=O)[nH]c1N=NCC1C=CC(=O)C([N+](=O)[O-])=C1` (configuration not stated) [MLS000585487], 69.5 µM corresponded to half-maximal inhibition (IC50).
The value for `O=C(Cn1cncn1)NN=Cc1c2ccccc2cc2ccccc12` [N-(9-anthracenylmethylideneamino)-2-(1,2,4-triazol-1-yl)acetamide] was 69.5 µM; that for `COc1cc(OC)c(C2C3=C(CC(C)(C)CC3=O)OC(=N)C2C#N)cc1OC` (configuration not stated) [SMR000054706] was 8.8 µM; that for `CC(C)C1Nc2ccc(S(N)(=O)=O)cc2C2C=CCC21` (configuration not stated) [SMR000070348] was 13.3 µM.
Compound `COc1ccc(C=CC(=O)c2c(O)n(CCC3=CCCCC3)c(=O)[nH]c2=O)cc1OC` [SMR000221147] returned an IC50 of 69.5 µM.
The value for `COc1ccc(-c2nnc(SCC(=O)Nc3cc(S(=O)(=O)N4CCCCC4)ccc3Cl)n2N)cc1` [SMR000243460] was 7.72 µM.
Take `COC(=O)c1ccc(-n2c(C)cc(CN=Nc3nc(C)cc(=O)[nH]3)c2C)cc1` [SMR000364461]: the IC50 came to 69.5 µM.
On to `COC(=O)CCCC1=CC2=CC(=O)C(C)(OC(=O)C3CCCC3)C(=O)C2=CO1` (configuration not stated) [SMR000452591], for which the IC50 was determined as 7.23 µM.

The values above are taken from BindingDB's records for doi:10.7270/Q2930RT9 (The Scripps Research Institute Molecular Screening Center, 2014).
